Data published in US7829548B2, “Compounds useful in the treatment of HIV” (Medivir AB, priority 2004, dated 2010).
Where two headings read alike, the source gives them in different places. Blank lines part the entries; values can stand above or below the compound they belong to.

Tests used:
HIV-1 RT [1] = target: T1, HIV-1 RT (Human immunodeficiency virus type 1 group M subtype B, UniProt P04585); test: DNA chain termination assay (M13mp18 template, gel autoradiography); assay type: biochemical
Protocol: Two deoxycytosine analogues, the conventional NRTI ddC lacking a 3′-hydroxyl group function and the compound of the invention, were subjected to a DNA chain termination assay in which DNA prolongation was conducted with M13mp18 single strand DNA template pre-annealed to an oligo-DNA primer (the forward primer sequence of 5′-[…]-3′ (SEQ ID NO:2) was purchased from Amersham UK. M13mp18 single strand […] was annealed to this oligo-DNA primer giving a final concentration of 1 mg/ml in a buffer containing 10 mM Tris-HCl, pH 7.9 and 100 mM NaCl, and was stored in aliquots at −20° C. DNA polymerization was conducted using this annealed template/primer, HIV-1 RT and natural dNTPs in a reaction incubated at 37° C. for 25 min. The reaction was stopped by the addition of Stop solution containing 95% Formamide, 20 mM EDTA, 0.05% Bromophenol Blue and 0.05% Xylene Cyanol FF (purchased from USB, United States Biochemical via Amersham UK). After denaturing the DNA products, the elongated DNA fragment was electrophoresed on an 8.0% polyacrylamide gel and visualized using autoradiography.
The assay included a negative control (the native dNTP), dual positive ddCTP controls (ddCTP, 8 uM from Sigma Chemical, St. Louis, Miss., USA and ddCTP obtained from a USB sequence kit United States Biochemical via Amersham UK). Various molecule ratios of the triphosphate of the compound of the invention and the natural dNTP were used. After the reaction was conducted as described above, the denatured DNA fragments from each individual reaction was loaded onto an 8.0% polyacrylamide gel in the following order: • 1—Negative control • 2—1st Positive control 8 μM ddCTP (purchased from Sigma) • 3—20 μM inventionTP in 200 μM dNTP • 4—30 μM inventionTP in 300 μM dNTP • 5—40 μM invention TP in 400 μM dNTP • 6—50 μM invention TP in 500 μM dNTP • 7—20 μM invention TP in 80 μM dNTP • 8—40 μM invention TP in 80 μM dNTP • 9—Empty space (no loading) • 10—2nd positive control ddCTP (from USB sequence kit)

[2] = system: HIV-1 isolates from patient plasma samples; assay type: cell-based; conditions: for FC value: isolate 4 (K65R+M184V, R211S, K219E)
Protocol: The susceptibility of 2′,3′-dideoxy-3′-C-hydroxymethyl-cytosine on HIV-1 isolates from patient plasma samples that bear typical TAM primer rescue mutant resistant genotypes is determined by the commercially available PhenoSense HIV assay (described in Petropoulos, C J et al., (2000) Antimicrob. Agents Chemother. 44:920-928 and performed by ViroLogics, Inc). The assay is performed by amplifying the protease (PR)-RT segment of the HIV pol gene from patient plasma and inserting the amplification products into a modified HIV-1 vector derived from an NL4-3 molecular clone.
Viral stocks are prepared by co-transfecting 293 cell cultures with recombinant viral DNA vector and an expression vector that produces the amphotropic murine leukemia virus envelope proteins. Pseudotyped virus particles are harvested from the transfected cell cultures and are used to infect fresh 293 cell cultures. The recombinant viral DNA contains a luciferase gene cassette within the HIV env gene region and the production of luciferase in target cells is dependent on the completion of one round of virus replication. Drug susceptibility is measured by adding serial concentrations of the compound of the invention and the reference compounds to the cells. Drugs that inhibit virus replication reduce luciferase signal in a dose-dependent manner, providing a quantitative measure of drug susceptibility.

HIV-1 RT [3] = target: T1, HIV-1 RT; test: Residual free 3′-OH primer terminus after pre-incubation, second round of RT-catalysed DNA polymerization; assay type: biochemical; conditions: pre-incubation 10 and 30 minutes; ddCTP compared to the triphosphate of the compound of the invention
Protocol: The presence of a 3′-hydroxymethyl group in the compound of the invention should, in principle, support incorporation and elongation into the viral nucleic acid catalyzed by HIV-1 RT. A rate-limiting amount of primer-template (16S and 23S ribosomal RNA annealed with an oligo-DNA primer with the sequence of 5′-[…]-3′ (SEQ ID NO:1), custom synthesized by INNOVAGEN) was used. This was pre-incubated with 100 μM (55 times the IC50) 2′-3′-dideoxy-3′-C-hydroxymethylcytidine-triphosphate, 6.0 μM ddC-triphosphate (54 times the IC50 ddCTP), 20 μM deoxycytosine-triphosphate (20 times the Km dCTP) or the control (H2O). At the time points indicated (0, 10, 30, 60, and 120 min), the DNA polymerization process was stopped by inactivation of the RT at 70° C. for 2 min during the first round of DNA polymerization (FIG. 9).
The residual amount of primer-template directly reflects the availability of free 3′-OH primer terminus present after the first round of reaction. […] The availability of free 3′-OH at the primer terminus in the residual amount of primer-template that supported further DNA polymerization was measured and expressed as a function of pre-incubation time (FIG. 10).

[4] = system: TAM primer rescue-related resistant HIV isolates; test: Drug susceptibility assay in PBMC culture (p24 antigen); assay type: cell-based, HIV-1
Protocol: The antiviral performance of the compound of the invention against additional TAM primer rescue-related resistant HIV isolates was assayed in a PBMC culture. Isolates of HIV-1 were generated and expanded to high titer by co-cultivation of infected patient PBMC with PHA-stimulated donor PBMC (Virology Manual for ACTG HIV Laboratories). The cell-free supernatants were harvested, sequenced, and stored in aliquots at −70° C. for drug susceptibility assays.
In vitro drug susceptibility assays were performed using a modified ACTG/DOD consensus method (Virology Manual for ACTG HIV laboratories). PBMCs were pre-infected with viral stocks for 4 hrs at […] in a humidified atmosphere of 5% CO2 following 4 hr incubation. Infected cells were washed twice in media and pipetted into a microtiter plate with eight serial drug dilutions. Each well contained 100,000 pre-infected PBMC and all drug dilutions were made with cell culture medium. The drug dilutions were chosen to span the 50% inhibitory concentration (IC50) for each single drug. Control wells containing cells and virus were co-incubated on each plate. After a 7-day incubation at […] in a […] atmosphere of 5% CO2, viral growth was determined using a p24 antigen assay on supernatants (Abbott Laboratories, Chicago, USA). The percent inhibition of viral growth compared to the control well, which contained no drug, was calculated and expressed as fold changes (reductions in compounds susceptibility) compared to the control well. The reference compound AZT was run in parallel with the compound of the invention.
A cluster of representative of primer rescue-related mutant virus was selected that harbors the essential feature of primer rescue-related TAM resistant RT mutations. Strains with mutations at position M41L, D67N, K70R, L210W, T215Y/F and K219Q/E in various combinations with or without discriminative mutant M184V were used as indicated in Table 4.

[5] = Release of parent compound from prodrugs in pooled human plasma; assay type: in vitro ADME; conditions: 37C, spiked with 5 uM of the prodrug
Protocol: Confirmation that the prodrugs of the invention convert completely to active 2′3′-dideoxy-3′-C-hydromethylcytosine parent compound can be assessed by monitoring the appearance of the parent compound in pooled human plasma, 37C, spiked with 5 uM of the prodrug: […]

HIV = test: Antiretroviral ED50 in human H9 cells; assay type: cell-based; conditions: Human immunodeficiency virus 1
[6] = patient isolates 20 and 21, isolate not specified, compared to wildtype
[7] = primer rescue mutant isolates of Table 4

SMILES: Nc1ccn([C@H]2C[C@H](CO)[C@@H](COP(=O)(O)OP(=O)(O)OP(=O)(O)O)O2)c(=O)n1 [inventionTP, 2′-3′-dideoxy-3′-C-hydroxymethylcytidine-triphosphate]
chain termination pattern (HIV-1 RT [1]; lane 3, 20 μM TP / 200 μM dNTP): led to chain termination at the site after/behind 2′3′-deoxydeoxycytosine site
chain termination pattern (HIV-1 RT [1]; lane 4, 30 μM TP / 300 μM dNTP): led to chain termination at the site after 2′3′-deoxydeoxycytosine site
chain termination pattern (HIV-1 RT [1]; lane 5, 40 μM TP / 400 μM dNTP): lead to chain termination at the site after 2′3′-deoxydeoxycytosine site
chain termination pattern (HIV-1 RT [1]; lane 6, 50 μM TP / 500 μM dNTP): No specific pause (chain termination pattern) was found
chain termination pattern (HIV-1 RT [1]; lane 7, 20 μM TP / 80 μM dNTP): led to a more pronounced chain termination effect at the site after the 2′3′-deoxydeoxycytosine site
chain termination pattern (HIV-1 RT [1]; lane 8, 40 μM TP / 80 μM dNTP): led to a more pronounced chain termination effect at the site after the 2′3′-deoxydeoxycytosine site

SMILES: Nc1nc(=O)n([C@@H]2CS[C@H](CO)O2)cc1F [FTC, emtricitabine]
FC value [2]: > 40
fold reduction in susceptibility [2, 6]: lost potency

SMILES: Nc1ccn([C@H]2CC[C@@H](COP(=O)(O)OP(=O)(O)OP(=O)(O)O)O2)c(=O)n1 [ddCTP, ddC-triphosphate, reference compound]
chain termination pattern (HIV-1 RT [1]; lane 2, 1st positive control, 8 μM): led to chain termination at the anticipated 2′3′-deoxydeoxycytosine sites
chain termination pattern (HIV-1 RT [1]; lane 10, 2nd positive control (USB sequence kit)): led to chain termination at anticipated 2′3′-deoxydeoxycytosine sites
residual 3-OH primer terminus left to support further DNA prolongation (HIV-1 RT [3]): less than half

SMILES: Cc1cn([C@H]2C[C@H](N=[N+]=[N-])[C@@H](CO)O2)c(=O)[nH]c1=O [AZT, zidovudine]
FC value ([4]; isolate 7086 (T215V)): 3.0
FC value [4, 7]: a couple of hundred folds
FC value [2]: 1.11

SMILES: C[C@H](Cn1cnc2c(N)ncnc21)OCP(=O)(O)O [TNF, tenofovir]
fold reduction in susceptibility [2, 6]: lost potency

SMILES: CCCCC(=O)OC[C@H]1C[C@H](n2ccc(N)nc2=O)O[C@@H]1CO [Compound 24, 2′,3′-dideoxy-3′-C-pentanoyl-oxymethylcytosine]
Concentration of parent uM 5 min [5]: 4.2 µM
Concentration of parent uM 20 min [5]: 4.4 µM
Concentration of parent uM O min [5]: 3.9 µM

Concentration of parent uM 5 min [5]: 4.0 µM
Concentration of parent uM 20 min [5]: 4.5 µM
Concentration of parent uM O min [5]: 4.2 µM
SMILES: CCCCC(=O)OCC1CC(n2ccc(N)nc2=O)OC1COC(=O)CCCC (centres unmarked) [Compound 22, 5′-O-pentanoyl-2′-3′-dideoxy-3-C-pentanoyl-oxymethylcytosine]

Concentration of parent uM 5 min [5]: 0.2 µM
Concentration of parent uM 20 min [5]: 0.3 µM
Concentration of parent uM O min [5]: 0.1 µM
SMILES: CC(C)[C@H](N)C(=O)OCC1CC(n2ccc(N)nc2=O)OC1COC(=O)[C@@H](N)C(C)C (stereo partly drawn) [Compound 8, 5′-O-L-valyl-2′,3′-dideoxy-3′-C-L-valyloxymethylcytosine]

Concentration of parent uM 5 min [5]: 4.5 µM
Concentration of parent uM 20 min [5]: 4.6 µM
Concentration of parent uM O min [5]: 4.6 µM
SMILES: CC(C)[C@H](N)C(=O)O[C@@H](C)C(=O)OCC1CC(n2ccc(N)nc2=O)OC1CO (stereo partly drawn) [Compound 14, 2′,3′-dideoxy-3′-C-[2-S-(L-valyloxy)-propionyl]-oxymethylcytosine]

Concentration of parent uM 5 min [5]: 0.4 µM
Concentration of parent uM 20 min [5]: 1.0 µM
Concentration of parent uM O min [5]: 0 µM
SMILES: CC(C)[C@H](N)C(=O)OCC1CC(n2ccc(N)nc2=O)OC1CO (stereo partly drawn) [Compound 5, 2′-3′-dideoxy-3-C-(L-valyl-oxymethyl)cytosine]

SMILES: Nc1nc(NC2CC2)c2ncn([C@H]3C=C[C@@H](CO)C3)c2n1 [ABC, abacavir]
FC value [2]: > 9.0
fold reduction in susceptibility [2, 6]: lost potency

SMILES: Nc1ccn([C@H]2C[C@H](CO)[C@@H](CO)O2)c(=O)n1 [compound of the invention, 2′,3′-dideoxy-3′-C-hydroxymethylcytidine]
FC value [4, 7]: ≤ 2.7
EC50 (HIV): ~10 nM
FC value [2]: 3.88
fold difference in susceptibility ([2]; patient isolate 19 (M184V + TAMs), compared to wild type HIV): 1.78 fold
fold reduction in susceptibility ([2]; patient isolate 20 (TAM), compared to wild-type HIV): 1.0 fold
fold reduction in susceptibility ([2]; patient isolate 21 (TAM), compared to wild-type HIV): < 1.0 fold
fold reduction in susceptibility ([2]; patient isolate 32 (T69S + VG insertion)): 2.79 fold
fold reduction in susceptibility ([2]; patient isolate 35 (T69S + VA insertion)): 4.29 fold
change in drug susceptibility ([2]; patient isolates 31, 32 and 35 (T69S + XX + TAMs), compared with six reference antivirals): smallest change in drug susceptibility

SMILES: Cc1cn([C@H]2C=C[C@@H](CO)O2)c(=O)[nH]c1=O [d4T, stavudine]
FC value [2]: 0.71
fold reduction in susceptibility [2, 6]: lost potency

SMILES: Nc1ccn([C@@H]2CS[C@H](CO)O2)c(=O)n1 [Compound 3TC, lamivudine]
FC value [2]: > 200
